Data on 19 molecules can be found in US20050009820A1, “Thiochromenones used to combat painful conditions and neurodegenerative diseases” (priority 2001, published 2005).

T1 sequence (Q13255 19-1194): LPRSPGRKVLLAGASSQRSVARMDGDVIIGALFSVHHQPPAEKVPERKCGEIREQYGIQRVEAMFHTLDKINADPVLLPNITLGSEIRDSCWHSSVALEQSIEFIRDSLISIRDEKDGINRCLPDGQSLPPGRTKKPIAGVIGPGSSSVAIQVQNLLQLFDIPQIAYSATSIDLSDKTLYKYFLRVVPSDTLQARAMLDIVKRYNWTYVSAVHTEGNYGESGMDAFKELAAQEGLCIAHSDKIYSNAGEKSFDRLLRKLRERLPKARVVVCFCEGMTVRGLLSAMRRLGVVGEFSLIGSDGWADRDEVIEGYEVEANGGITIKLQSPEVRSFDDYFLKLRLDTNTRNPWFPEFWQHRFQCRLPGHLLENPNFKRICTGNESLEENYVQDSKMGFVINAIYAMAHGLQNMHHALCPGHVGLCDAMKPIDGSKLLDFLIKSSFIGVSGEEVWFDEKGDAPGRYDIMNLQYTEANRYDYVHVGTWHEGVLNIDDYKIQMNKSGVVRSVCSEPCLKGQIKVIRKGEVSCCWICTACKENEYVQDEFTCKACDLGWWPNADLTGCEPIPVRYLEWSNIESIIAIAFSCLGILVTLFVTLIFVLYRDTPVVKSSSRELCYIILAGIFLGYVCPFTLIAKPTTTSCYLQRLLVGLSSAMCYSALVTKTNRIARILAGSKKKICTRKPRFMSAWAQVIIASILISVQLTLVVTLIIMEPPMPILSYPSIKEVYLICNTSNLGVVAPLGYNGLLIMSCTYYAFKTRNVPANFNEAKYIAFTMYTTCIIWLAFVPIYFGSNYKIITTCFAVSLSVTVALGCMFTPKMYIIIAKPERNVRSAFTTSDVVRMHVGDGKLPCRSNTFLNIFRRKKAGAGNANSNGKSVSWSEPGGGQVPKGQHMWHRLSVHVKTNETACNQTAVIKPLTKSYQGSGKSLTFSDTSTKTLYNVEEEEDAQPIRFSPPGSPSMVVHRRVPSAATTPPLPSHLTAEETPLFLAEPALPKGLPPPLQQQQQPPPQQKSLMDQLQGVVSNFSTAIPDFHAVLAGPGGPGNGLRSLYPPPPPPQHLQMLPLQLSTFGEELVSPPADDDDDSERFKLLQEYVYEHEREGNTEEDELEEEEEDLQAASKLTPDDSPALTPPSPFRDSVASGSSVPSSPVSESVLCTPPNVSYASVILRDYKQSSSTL

One data set has as its target T1, mGluR1 receptor (Homo sapiens, UniProt Q13255).
T1 construct: expressed in transfected cells; host or cells: CHO cells
Kind of data set: Determination of the activity on the mGluR1 receptor (luciferase luminescence in mGluR1 receptor-expressing CHO cells stimulated with 1 mM glutamate). The format is cell-based. Conditions: 1 mM glutamate with the test substance, 37° C., 4 h, luminescence readout. As to the method: 1. Determination of the activity on the mGluR1 receptor
mGluR1 receptor-expressing CHO cells are seeded in 96-well plates (Greiner, Frickenhausen, Germany) (20 000 cells/well) and cultivated in ultra CHO medium (Bio-Whittaker, Walkersville, Md., 10% fetal calf serum) for one day. The substances to be tested are initially dissolved in a concentration of 10^−2 M in 100% DMSO and then diluted to the desired concentration with the culture medium. After being washed once with cell culture medium, the cells are incubated with 1 mM glutamate and simultaneously with the substance to be tested at 37° C. for 4 h. The medium is then aspirated off and the cells are lysed with 75 μl of Triton-luciferase buffer (1% Triton X 100, 10% glycerol, 2 mM DTT, 25 mM Na2HPO4, 25 mM TRIS), (530 μM ATP, 470 μM luciferin, 270 μM CoA, 20 mM tricine, 2.67 mM MgSO4, 33.3 mM DTT, 0.1 mM EDTA, pH 7.8). The luminescence is measured after one minute using a camera (Hamamatsu, Japan). Cells incubated only with glutamate show a marked increase in the luminescence compared with controls, while mGluR1 receptor antagonists reduce this concentration-dependently to below the initial luminscence.
In general, IC50 refers to the point on the concentration scale where inhibition reaches its midpoint. On to `CC1(C)CCc2c(sc3cc(-c4cccnc4)ccc3c2=O)C1` [Example 1-31, 3,3-Dimnethyl-6-(3-pyridinyl)-1,2,3,4-tetrahydro-9H-thioxanthen-9-one], for which it took 0.031 µM to reach half-maximal inhibition (IC50). The same measure, in the same setting: to `CCC1CCc2c(sc3cc(-c4cncnc4)ccc3c2=O)C1` (stereo not shown) [Example 3-55] belongs 0.035 µM; to `CCC1CCc2c(sc3cc(-c4cccs4)ccc3c2=O)C1` (stereo not shown) [Example 1-10, 3-Ethyl-6-(2-thienyl)-1,2,3,4-tetrahydro-9H-thioxanthen-9-one], 0.097 µM.

As to `CCC1CCc2c(sc3cc(-c4nnn[nH]4)ccc3c2=O)C1` (stereo not shown) [Example 1-3, 3-Ethyl-6-(1H-tetrazol-5-yl)-1,2,3,4-tetrahydro-9H-thioxanthen-9-one], the IC50 was found to be 0.009 µM. Turning to `CCC(=O)Nc1ccc2c(=O)c3c(sc2c1)CC(CC)CC3` (stereo not shown) [Example 3-49, N-(3-Ethyl-9-oxo-2,3,4,9-tetrahydro-1H-thioxanthen-6-yl)propanamide], the IC50 was determined as 0.035 µM. On the same count and under the same terms, as for `CCC1CCc2c(sc3cc(N(C)S(=O)(=O)c4cccc(C#N)c4)ccc3c2=O)C1` (stereo not shown) [Example 4-8, 3-Cyano-N-(3-ethyl-9-oxo-2,3,4,9-tetrahydro-1-thioxanthen-6-yl)-N-methylbenzenesulfonamide], the figure is 0.025 µM. The same measure, in the same setting: to `CC1(C)CCc2c(sc3cc(-c4cccc(C#N)c4)ccc3c2=O)C1` [Example 1-27, 3-(3,3-Dimethyl-9-oxo-2,3,4,9-tetrahydro-1H-thioxanthen-6-yl)benzonitrile] belongs 0.023 µM; to `CCC1CCc2c(sc3cc(-c4cccc(C#N)c4)ccc3c2=O)C1` (stereo not shown) [Example 1-29, 3-(3-Ethyl-9-oxo-2,3,4,9-tetrahydro-1H-thioxanthen-6-yl)benzonitrile], 0.021 µM. Same read-out and setting: as for `CCC1CCc2c(sc3cc(-c4noc(=O)[nH]4)ccc3c2=O)C1` (stereo not shown) [Example 1-34, 3-(3-Ethyl-9-oxo-2,3,4,9-tetrahydro-1H-thioxanthen-6-yl)-1,2,4-oxadiazol-5(4H)-one], the figure is 0.081 µM. On to `CCC1CCc2c(sc3cc(N4CCCCC4)ccc3c2=O)C1` (stereo not shown) [Example 3-22, 3-Ethyl-6-(1-piperidinyl)-1,2,3,4-tetrahydro-9H-thioxanthen-9-one], for which inhibition was half-maximal at 0.013 µM (IC50).

With `CCC1CCc2c(sc3cc(N(C)CCOC)ccc3c2=O)C1` (stereo not shown) [Example 3-21, 3-Ethyl-6-[(2-methoxyethyl)(methyl)amino]-1,2,3,4-tetrahydro-9H-thio-xanthen-9-one], the IC50 amounted to 0.022 µM. On the same count and under the same terms, to `CCC1CCc2c(sc3cc(N4CCCCC4)c(F)cc3c2=O)C1` (stereo not shown) [Example 3-23, 3-Ethyl-7-fluoro-6-(1-piperidinyl)-1,2,3,4-tetrahydro-9H-thioxanthen-9-one] belongs 0.028 µM.

Tested on in a further data set: not given
Assay: not given
Details: not given
Usually melting point stands for the temperature of the solid-liquid transition. `CC1(C)CCc2c(sc3cc(NS(C)(=O)=O)ccc3c2=O)C1` [Example 2-11, N-(3,3-Dimethyl-9-oxo-2,3,4,9-tetrahydro-1H-thioxanthen-6-yl)methanesulfonamide] registered a melting point of 272 °C. The same measure, in the same setting: as for `CC1(C)CCc2c(sc3cc(NS(=O)(=O)c4ccccc4)ccc3c2=O)C1` [Example 2-12, N-(3,3-Dimethyl-9-oxo-2,3,4,9-tetrahydro-1H-thioxanthen-6-yl)benzenesulfonamide], the figure is 231 °C; as for `Cc1ccc(S(=O)(=O)Nc2ccc3c(=O)c4c(sc3c2)CC(C)(C)CC4)cc1` [Example 2-13, N-(3,3-Dimethyl-9-oxo-2,3,4,9-tetrahydro-1H-thioxanthen-6-yl)-4-methylbenzenesulfonamide], 279 °C. The molecule `CC(C)S(=O)(=O)Nc1ccc2c(=O)c3c(sc2c1)CC(C)(C)CC3` [Example 2-15, N-(3,3-Dimethyl-9-oxo-2,3,4,9-tetrahydro-1H-thioxanthen-6-yl)isopropylsulfonamide] returned a melting point of 263 °C. Same read-out and setting: to `CC1(C)CCc2c(sc3cc(OS(=O)(=O)Cc4ccccc4OC(F)(F)F)ccc3c2=O)C1` [Example 2-14, 3,3-Dimethyl-9-oxo-2,3,4,9-tetrahydro-1H-thioxanthen-6-yl [2-(trifluoromethoxy)-phenyl]methanesulfonate] belongs 249 °C; to `CC1(C)CCc2c(sc3cc(-n4cccc4)ccc3c2=O)C1` [Example 2-24, 3,3-Dimethyl-6-(1H-pyrrol-1-yl)-1,2,3,4-tetrahydro-9H-thioxanthen-9-one], 169 °C.

`CCC1CCc2c(sc3cc(-n4cccc4)ccc3c2=O)C1` (stereo not shown) [Example 2-25, 3-Ethyl-6-(1H-pyrrol-1-yl)-1,2,3,4-tetrahydro-9H-thioxanthen-9-one]: the melting point amounted to 145 °C.
